Key:
[1] = system: c-MYC G-quadruplex DNA, dual labelled (FRET) (DNA, G4) GGGGAGGGTGGGGAGGGTGGGG; experiment: FRET melting; settings: K+ (60 mM potassium cacodylate), pH 7.4, 100 nM DNA, 1 μM compound
[2] = system: dsDNA, dual labelled (FRET) (DNA, duplex) CAAAAATTTTTGCAAAAATTTTTG; experiment: FRET melting; settings: K+ (60 mM potassium cacodylate), pH 7.4, 100 nM DNA, 1 μM compound
[3] = system: c-MYC G-quadruplex DNA (DNA, G4) GGGGAGGGTGGGGAGGGTGGGG; experiment: fluorescence titration (ligand fluorescence, Hill fit); settings: K+ (100 mM Tris-KCl), pH 7.4, 25 °C, 1 μM ligand titrated with DNA
[4] = system: dsDNA (control duplex DNA) (DNA, duplex) CAAAAATTTTTGCAAAAATTTTTG; experiment: as above; settings: K+ (100 mM Tris-KCl), pH 7.4, 25 °C, 1 μM ligand titrated with DNA

ΔTm [1] | ΔTm [2] | KD [3] | KD [4] | Structure (SMILES)
11.14±0.28 °C | 1.61±0.12 °C | 510 ± 50 nM | > 25000 nM | CN(C)CCCNC(=O)c1ccc(-n2c3ccccc3c3cc(-c4cn(-c5ccc(N)cc5)nn4)ccc32)cc1
8.17±0.41 °C | 8.41±0.21 °C | 1130 ± 30 nM | 880 ± 20 nM | CN(C)CCCNC(=O)c1ccc(-n2c3ccccc3c3cc(-c4cn(CCCN(C)C)nn4)ccc32)cc1
19.3±0.96 °C | 0.86±0.04 °C | 170 ± 10 nM | > 30000 nM | CN(C)CCCNC(=O)c1ccc(-n2cc(-c3ccc4c(c3)c3ccccc3n4-c3ccc(C(=O)NCCCN(C)C)cc3)nn2)cc1

Reference: publication PMC5519986 (2017)
